# Values of other authors as cited in patent US20200138792A1, “PHARMACEUTICAL COMBINATIONS OF ZONISAMIDE AND PRAMIPEXOLE, AND RELATED METHODS, FOR TREATING SYNUCLEINOPATHIES” (CHASE THERAPEUTICS CORPORATION, priority 2017, published 2020).
# Tests used:
# [1] = tested on: human neuroblastoma SH-SY5Y cells
# alpha-synuclein = alpha-synuclein (Homo sapiens, UniProt P37840)
# [2] = biological target: human wild-type alpha-synuclein (Homo sapiens, UniProt P37840); conditions: hydrogen peroxide plus cytochrome c
# [3] = 5 mg/day of pramipexole
# nigral dopamine neurons = conditions: 30 mg/kg injection, 6-OHDA mice
# [4] = tested on: nigrostriatal dopaminergic neurons; conditions: chronic administration
# [5] = tested on: nigral TH-positive neurons; conditions: 20 mg/kg, MPTP-treated mice
# [6] = 25 mg-50 mg, alone or with levodopa
# A53T α-synuclein = biological target: T1, A53T α-synuclein (Homo sapiens, UniProt P37840, A53T); conditions: 40 mg/kg/day oral
# T1 construct: host or cells: rat brain in vivo, transduced with a viral vector
SMILES,toxic effects of rotenone on dopaminergic neurons (dopaminergic neurons; mouse PD model),immunoreactivity for alpha-synuclein (dopaminergic neurons; rotenone mouse PD model),aggregation of alpha-synuclein [1],in vitro oligomerization and aggregation of alpha-synuclein (alpha-synuclein),in vitro oligomerization of human wild-type alpha-synuclein [2],"nausea, patients affected [3]","vomiting, patients affected [3]",patients not able to complete the study ([3]; presumably intolerable GI adverse events),loss of nigral dopamine neurons (nigral dopamine neurons),brain-derived neurotrophic factor content in striatum and ventral midbrain vs saline [4],"survival of nigrostriatal dopaminergic neurons, striatal dopaminergic terminals and motor function vs saline [4]",loss of nigral TH-positive neurons [5],striatal dopamine depletion [5],motor symptoms in patients with PD [6],survival of nigrostriatal dopamine neurons (A53T α-synuclein),pace of degeneration vs control group (A53T α-synuclein; four weeks after injection of viral vector for A53T α-synuclein gene)
"CCCN[C@H]1CCc2nc(N)sc2C1 [pramipexole, (S)-6-propylamino-4,5,6,7-tetrahydro-1,3-benzothiazole-2-amine]",inhibits,reducing,inhibit,diminishes synuclein oligomer formation,decreases,76%,39%,36%,,,,,,,,
"NS(=O)(=O)Cc1noc2ccccc12 [zonisamide, 1,2-benzisoxazole-3-methanesulfonamide]",,,,inhibits,,,,,prevented the loss of nigral dopamine neurons,increased,improved,reduced the loss of nigral TH-positive neurons,attenuating the associated striatal dopamine depletion,improve motor symptoms,no impact,significantly delayed
